Assay results reported in patent US20100183542A1, “Synergism Between Activated Immune Cells and Conventional Cancer Therapies” (UNIVERSITY OF SOUTH ALABAMA, priority 2006, published 2010).

What was measured:
Hela cells [1] = assay: Hela cells pre-sensitized with cytokines for 2 days, fresh medium 3 days, WST-1 on day 5 (Experiments 9, 10); format: cell-based; details: for effect on the maximum cytotoxic effect of IFN-γ: Experiment 9: in combination with IFN-γ
Procedure: Hela cells were pre-sensitized with IFN-γ, and IFN-γ in combination with other cytokines for 2 days. The pre-sensitized Hela cells were then cultured with fresh complete RPMI 1640 for another 3 days. Cell viability was measured by WST-1 assay on day 5.
The pre-sensitized Hela cells were cultured with fresh complete RPMI 1640 for another 3 days. Cell viability was measured by WST-1 assay on day 5.

Hela cells [2] = assay: Hela cells pre-sensitized with cytokines, 4 Gy gamma radiation, WST-1 on day 5 (Experiments 7, 8, 11, 12, 13); format: cell-based
Procedure: (§1) Hela cells were pre-sensitized for 2 days with each cytokine listed on FIG. 29. The pre-sensitized Hela cells were thereafter trypsinzed, washed, and irradiated with 4 Gy of gamma radiation. The irradiated cells were plated in 96-well plate at 5000 cells per well in 200 μl of complete medium. Cell viability was measured by WST-1 reagent on day 5.
as §1, with “by individual cytokines, combinations or all cytokines.” for “with each cytokine listed on FIG. 29.”, “harvested,” for “trypsinzed,”, “RPMI 1640” for “complete”, “assay” for “reagent”
Hela cells were pre-sensitized with various combinations of cytokines identified in FIG. 33. The pre-sensitized Hela cells were made single suspension and irradiated by 4 Gy of gamma radiation. The irradiated cells were plated in 96-well plate at 5000 cells per well in 200 μl RPMI 1640 medium. Cell viability was measured by WST-1 assay on day 5.
Hela cells were pre-sensitized for 2 days with CD4+ T cells, a combination of [IFN-γ/TNF-α/IL-2/Il-6], or a combination of all cytokines. The pre-sensitized cells were thereafter placed into a single suspension and irradiated by 4 Gy of gamma radiation. The irradiated cells were plated in 96-well plate at 5000 cells per well in 200 μl RPMI 1640 medium. Cell viability was measured by WST-1 assay on day 5.
Another experiment was performed similar to experiment 16, except that [IFN-γ/TNF-α] was used instead of the combination of [IFN-γ/TNF-α/Il-2/Il-6].

TNF-α was tested, and the “effect on the maximum cytotoxic effect of IFN-γ” value (Hela cells [1]) was “added effect”.

In the case of GM-CSF: cytokine, the “effect on the maximum cytotoxic effect of IFN-γ” value (Hela cells [1]) is reported as “added effect”.

In the case of IFN-γ: cytokine, the “contribution to enhanced effect of gamma irradiation” value (Hela cells [2]; Experiment 7: each cytokine 2 days, 4 Gy) is reported as “major factor contributing to the enhanced effect of gamma irradiation” and the “synergistic effect with gamma radiation” value (Hela cells [2]; Experiment 11: 4 Gy) is reported as “Synergistic effect”.

B1: IFN-γ: cytokine (protein, UniProt P01579 24-161, looked up)
Interferon gamma: QDPYVKEAENLKKYFNAGHSDVADNGTLFLGILKNWKEESDRKIMQSQIVSFYFKLFKNFKDDQSIQKSVETIKEDMNVKFFNSNKKKRDDFEKLTNYSVTDLNVQRKAIHELIQVMAELSPAAKTGKRKRSQMLFRG
B1 was tested, and the “contribution to cytotoxicity of gamma irradiation” value (Hela cells [2]; Experiment 8: individual cytokines, combinations or all cytokines 2 days, 4 Gy) was “contributes to enhance cytotoxicity of gamma irradiation” and the contribution to cytotoxicity (Hela cells [1]; Experiment 9: 2 days pre-sensitization, 3 days fresh medium) was “contributes to enhance cytotoxicity of gamma irradiation”.
